Experimental findings from US20260085067A1, “CYCLIC SULFONAMIDE RIBONUCLEOTIDE REDUCTASE (RNR) INHIBITORS AND USES THEREOF” (Boundless Bio, Inc., priority 2022, published 2026) are described below.

For one assay, the target named is T1, RNR (RNR1:RNR2 1:1) (Homo sapiens, UniProt P23921).
T1 sequence (P23921 1-792): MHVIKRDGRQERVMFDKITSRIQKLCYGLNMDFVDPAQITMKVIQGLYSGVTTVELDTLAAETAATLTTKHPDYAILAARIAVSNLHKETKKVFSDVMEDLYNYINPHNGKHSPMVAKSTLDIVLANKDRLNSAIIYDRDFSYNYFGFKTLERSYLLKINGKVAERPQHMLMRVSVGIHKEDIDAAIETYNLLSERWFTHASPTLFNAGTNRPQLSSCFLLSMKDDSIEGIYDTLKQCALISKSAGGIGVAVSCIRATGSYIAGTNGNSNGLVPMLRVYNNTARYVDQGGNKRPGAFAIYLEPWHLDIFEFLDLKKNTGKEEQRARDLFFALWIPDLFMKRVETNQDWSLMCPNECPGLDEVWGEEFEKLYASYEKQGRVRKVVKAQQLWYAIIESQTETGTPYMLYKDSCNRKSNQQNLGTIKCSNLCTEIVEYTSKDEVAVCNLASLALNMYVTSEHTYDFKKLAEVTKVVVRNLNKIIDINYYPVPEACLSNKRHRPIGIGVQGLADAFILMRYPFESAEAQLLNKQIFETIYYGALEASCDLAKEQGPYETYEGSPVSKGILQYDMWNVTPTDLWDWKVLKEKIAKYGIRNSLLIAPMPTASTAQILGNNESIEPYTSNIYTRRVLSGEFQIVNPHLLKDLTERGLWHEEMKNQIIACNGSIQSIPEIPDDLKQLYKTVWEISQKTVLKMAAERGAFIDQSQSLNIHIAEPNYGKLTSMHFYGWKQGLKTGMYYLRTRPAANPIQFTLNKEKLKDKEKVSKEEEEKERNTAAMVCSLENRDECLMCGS
Briefly: RNR enzyme activity, rapid-fire mass spectrometry (RF/MS) assay. Type of assay: biochemical. To be noted: [RNR] 50 nM, 1:1 RNR1:RNR2; CDP 5 μM; ATP 1 mM; 37° C., 45 min; compounds screened up to 50 μM. As for the experimental part:
A rapid-fire mass spectrometry (RF/MS) assay was used to assess RNR enzyme activity using a 384 well plate and a robotic platform.
The plate layout included two validated reference compounds (Triapine (3-AP) and Hydroxyurea (HU)): • A dose response in duplicate; top concentration: 5 μM (3-AP) and 250 μM (HU), semi-log dilutions. • Spike wells in triplicate randomly spotted at four concentrations: • 250 μM, 100 μM, 30 μM and 2 μM for HU • 5 μM, 2 μM, 0.6 μM and 0.04 μM for 3-AP
First, the multidrop pipes were saturated for 30 minutes with enzymatic solution. Then 30 μL of Stop solution was distributed in column 24. Next, 15 μL of enzyme was distributed in column 1 to 24. Next, a pre-incubation step of 15 minutes at room temperature occurred, followed by distribution of 15 μL of substrate solution (column 1 to 24). Next, the plate was incubated for 45 minutes at 37° C. 30 μL of Stop solution was then distributed to columns 1 to 23.
The final parameters for the enzyme reactions were: • Incubation: 37° C., 45 min • [CDP]: 5 μM; [ATP]: 1 mM; [NADPH]: No • [RNR]final: 50 nM with 1:1 (RNR1:RNR2) ratio • Final volume: 30 μL • Stop solution: 6% HCOOH in water
For `Cc1ccc(F)c([C@H](C)[C@H](c2n[nH]c(=O)o2)N2CN(CC(O)CO)c3cc(Cl)ccc3S2(=O)=O)c1C` (mixture of isomers) [Example 85, 5-((1R,2S)-1-(6-chloro-4-(2,3-dihydroxypropyl)-1,1-dioxido-3,4-dihydro-2H-benzo[e][1,2,4]thiadiazin-2-yl)-2-(6-fluoro-2,3-dimethylphenyl)propyl)-1,3,4-oxadiazol-2 (3H)-one], the IC50 is < 0.02 µM.

Consider `Cc1ccc(F)c([C@@H](C)[C@@H](c2n[nH]c(=O)o2)N2CCOc3c(ccc(Cl)c3C(C)O)S2(=O)=O)c1C` (single isomer, unassigned) [Example 28], for which the IC50 was in the range of 1 to 10 µM.

The subject of a further assay is pCHK1 (S345) in Colo320 DM cells. Briefly: Alphalisa assay, detection of pCHK1 (S345) in Colo320 DM cells. Type of assay: cell-based, human. Particulars: Homo sapiens, COLO 320DM, compound overnight (approximately 16 hours). As for the experimental part: Colo320 DM cells (ATCC #CCL-220, derived from human colorectal adenocarcinoma, Dukes' type C) were seeded on a […], cell culture treated assay plate at a density of 50,000 cells/well in 200 μL of RPMI-1640 media supplemented with 10% Fetal Bovine Serum and incubated at 37° C. overnight. The following day, test compound dilutions were added directly to the plated cells by a Tecan digital dispenser to a final DMSO concentration of <0.5%. and incubated at 37° C. overnight (approximately 16 hours). The following day all cell culture media was removed from the cells. 75 μL of 1×AlphaLisa lysis buffer was added to each well and plates were agitated on a shaker for 30 minutes at room temperature. The lysis of cells and detection of pCHK1 (S345) were performed with reagents contained within the AlphaLisa Sure Fire assay kit (Perkin Elmer #ALSU-PCHK1-A) according to the manufacturer's instructions. 10 μL of each lysate was then transferred to a white, 384-well assay plate (Perkin Elmer #6008280). 5 μL of Acceptor mix was then added to each well of lysate in the white, 384-well assay plate and incubated in the dark at room temperature for 60 minutes. 5 μL of Donor mix was then added to each well of the white, 384-well assay plate in subdued light and incubated at room temperature for 60 minutes. Plates were read on an Alpha Technology-compatible plate reader using standard AlphaLisa settings.
As for `Cc1ccc(F)c([C@H](C)[C@H](c2n[nH]c(=O)o2)N2CN(CC(O)CO)c3cc(Cl)ccc3S2(=O)=O)c1C` (mixture of isomers) [Example 85, 5-((1R,2S)-1-(6-chloro-4-(2,3-dihydroxypropyl)-1,1-dioxido-3,4-dihydro-2H-benzo[e][1,2,4]thiadiazin-2-yl)-2-(6-fluoro-2,3-dimethylphenyl)propyl)-1,3,4-oxadiazol-2 (3H)-one], the IC50 lay within 1 to 5 µM.

As to `Cc1ccc(F)c([C@@H](C)[C@@H](c2n[nH]c(=O)o2)N2CCOc3c(ccc(Cl)c3C(C)O)S2(=O)=O)c1C` (single isomer, unassigned) [Example 28], the IC50 was > 50 µM.

`Cc1ccc(F)c([C@@H](C)[C@@H](c2n[nH]c(=O)o2)N2C(C)N(C)c3cc(Cl)ccc3S2(=O)=O)c1C` (stereo partly drawn) [Example 11, 5-((1S,2R)-1-(6-chloro-3,4-dimethyl-1,1-dioxido-3,4-dihydro-2H-benzo[e][1,2,4]thiadiazin-2-yl)-2-(6-fluoro-2,3-dimethylphenyl)propyl)-1,3,4-oxadiazol-2 (3H)-one] registered an IC50 of 10 to 50 µM.

In the case of `Cc1ccc(F)c([C@@H](C)[C@@H](c2n[nH]c(=O)o2)N2COc3c(ccc(Cl)c3C)S2(=O)=O)c1C` [Example 31, 5-((1S,2R)-1-(6-chloro-5-methyl-1,1-dioxidobenzo[e][1,4,3]oxathiazin-2 (3H)-yl)-2-(6-fluoro-2,3-dimethylphenyl)propyl)-1,3,4-oxadiazol-2 (3H)-one], the IC50 fell in the range of 1 to 5 µM.

For the molecule `Cc1ccc(F)c([C@@H](C)[C@@H](c2n[nH]c(=O)o2)N2CN(CC(C)(C)O)c3cc(Cl)ccc3S2(=O)=O)c1C` [Example 91, 5-((1S,2R)-1-(6-chloro-4-(2-hydroxy-2-methylpropyl)-1,1-dioxido-3,4-dihydro-2H-benzo[e][1,2,4]thiadiazin-2-yl)-2-(6-fluoro-2,3-dimethylphenyl)propyl)-1,3,4-oxadiazol-2 (3H)-one], the IC50 was ≤ 1 µM.

Molecule `CC(=O)c1cc(Cl)cc2c1S(=O)(=O)N([C@H](c1n[nH]c(=O)o1)[C@@H](C)c1c(F)ccc(C)c1C)CN2C1CC1` [Example 94, 5-((1S,2S)-1-(8-acetyl-6-chloro-4-cyclopropyl-1,1-dioxido-3,4-dihydro-2H-benzo[e][1,2,4]thiadiazin-2-yl)-2-(6-fluoro-2,3-dimethylphenyl)propyl)-1,3,4-oxadiazol-2 (3H)-one] yielded an IC50 of 1 to 5 µM.

With `Cc1ccc(F)c([C@@H](C)[C@@H](c2n[nH]c(=O)o2)N2CN(C3CN(CC(F)F)C3)c3cc(Cl)ccc3S2(=O)=O)c1C` [Example 107, 5-((1S,2R)-1-(6-chloro-4-(1-(2,2-difluoroethyl)azetidin-3-yl)-1,1-dioxido-3,4-dihydro-2H-benzo[e][1,2,4]thiadiazin-2-yl)-2-(6-fluoro-2,3-dimethylphenyl)propyl)-1,3,4-oxadiazol-2 (3H)-one], the IC50 was ≤ 1 µM.

As to `Cc1ccc(F)c([C@@H](C)[C@@H](c2n[nH]c(=O)o2)N2CN(CCF)c3cc(Cl)ccc3S2(=O)=O)c1C` [Example 108, 5-((1S,2R)-1-(6-chloro-4-(2-fluoroethyl)-1,1-dioxido-3,4-dihydro-2H-benzo[e][1,2,4]thiadiazin-2-yl)-2-(6-fluoro-2,3-dimethylphenyl)propyl)-1,3,4-oxadiazol-2 (3H)-one], the IC50 is ≤ 1 µM.

In the case of `CC(=O)c1cc(Cl)cc2c1S(=O)(=O)N([C@H](c1n[nH]c(=O)o1)[C@H](C)c1c(F)ccc(C)c1C)CN2` [Example 109, 5-((1S,2R)-1-(8-acetyl-6-chloro-1,1-dioxido-3,4-dihydro-2H-benzo[e][1,2,4]thiadiazin-2-yl)-2-(6-fluoro-2,3-dimethylphenyl)propyl)-1,3,4-oxadiazol-2 (3H)-one], the IC50 is ≤ 1 µM.

For the molecule `CC(=O)c1cc(Cl)cc2c1S(=O)(=O)N([C@H](c1n[nH]c(=O)o1)[C@H](C)c1c(F)ccc(C)c1C)CN2CCO` [Example 110, 5-((1S,2R)-1-(8-acetyl-6-chloro-4-(2-hydroxyethyl)-1,1-dioxido-3,4-dihydro-2H-benzo[e][1,2,4]thiadiazin-2-yl)-2-(6-fluoro-2,3-dimethylphenyl)propyl)-1,3,4-oxadiazol-2 (3H)-one], the IC50 is ≤ 1 µM.

Regarding `Cc1ccc(F)c([C@@H](C)[C@@H](c2n[nH]c(=O)o2)N2CN([C@H]3C[C@@H](N(C)C)C3)c3cc(Cl)ccc3S2(=O)=O)c1C` [Example 111, 5-((1S,2R)-1-(6-chloro-4-((1s,3R)-3-(dimethylamino)cyclobutyl)-1,1-dioxido-3,4-dihydro-2H-benzo[e][1,2,4]thiadiazin-2-yl)-2-(6-fluoro-2,3-dimethylphenyl)propyl)-1,3,4-oxadiazol-2 (3H)-one], the IC50 is ≤ 1 µM.

Consider `Cc1ccc(F)c([C@@H](C)[C@@H](c2n[nH]c(=O)o2)N2CN([C@H]3C[C@@H](O)C3)c3cc(Cl)ccc3S2(=O)=O)c1C` [Example 112, 5-((1S,2R)-1-(6-chloro-4-((1s,3R)-3-hydroxycyclobutyl)-1,1-dioxido-3,4-dihydro-2H-benzo[e][1,2,4]thiadiazin-2-yl)-2-(6-fluoro-2,3-dimethylphenyl)propyl)-1,3,4-oxadiazol-2 (3H)-one], for which the concentration for half-maximal inhibition (IC50) was ≤ 1 µM.

`Cc1ccc(F)c([C@@H](C)[C@@H](c2n[nH]c(=O)o2)N2CN(CCN)c3cc(Cl)ccc3S2(=O)=O)c1C` [Example 113, 5-((1S,2R)-1-(4-(2-aminoethyl)-6-chloro-1,1-dioxido-3,4-dihydro-2H-benzo[e][1,2,4]thiadiazin-2-yl)-2-(6-fluoro-2,3-dimethylphenyl)propyl)-1,3,4-oxadiazol-2 (3H)-one] showed an IC50 of 5 to 10 µM.

For `Cc1ccc(F)c([C@@H](C)[C@@H](c2n[nH]c(=O)o2)N2CN(OCc3ccccc3)c3cc(Cl)ccc3S2(=O)=O)c1C` [Example 114, 5-((1S,2R)-1-(4-(benzyloxy)-6-chloro-1,1-dioxido-3,4-dihydro-2H-benzo[e][1,2,4]thiadiazin-2-yl)-2-(6-fluoro-2,3-dimethylphenyl)propyl)-1,3,4-oxadiazol-2 (3H)-one], the IC50 was in the range of 5 to 10 µM.

In turn, `CNCCN1CN([C@H](c2n[nH]c(=O)o2)[C@H](C)c2c(F)ccc(C)c2C)S(=O)(=O)c2ccc(Cl)cc21` [Example 115, 5-((1S,2R)-1-(6-chloro-4-(2-(methylamino)ethyl)-1,1-dioxido-3,4-dihydro-2H-benzo[e][1,2,4]thiadiazin-2-yl)-2-(6-fluoro-2,3-dimethylphenyl)propyl)-1,3,4-oxadiazol-2 (3H)-one] showed an IC50 of 5 to 10 µM.

In turn, `CC(=O)c1cc(Cl)cc2c1S(=O)(=O)N([C@H](c1n[nH]c(=O)o1)[C@H](C)c1c(F)ccc(C)c1C)CC(=O)N2` [Example 119, 5-((1S,2R)-1-(9-acetyl-7-chloro-1,1-dioxido-4-oxo-4,5-dihydrobenzo[f][1,2,5]thiadiazepin-2 (3H)-yl)-2-(6-fluoro-2,3-dimethylphenyl)propyl)-1,3,4-oxadiazol-2 (3H)-one] had a 50% inhibitory concentration (IC50) of 5 to 10 µM.
